Measured values from PMC7529893, “Structural basis for substrate recognition and chemical inhibition of oncogenic MAGE ubiquitin ligases” (Nature Communications, 2020).
“Also recorded” adds a separate entry of the source.

What was measured:
[1] = test system: MAGE-A11-knockout DAOY cells or those reconstituted with MAGE-A11; assay: Cell viability, alamarBlue, DAOY cells; assay type: cell-based
Method: (§1) To assess cell viability after SJ521054 treatment, 1 × 10^4 cells/ml were treated with SJ521054 (0–40 μM) and incubated for 24 h prior to changing the media and adding alamarBlue (Thermo Fisher Scientific) and incubating for 4 h at 37 °C. Plates were read by measuring the fluorescence with excitation wavelength at 540 nm and emission wavelength at 590 nm on an Enspire plate reader.

[2] = test system: HEK293FT cells stably expressing FLAG-vector or FLAG-MAGE-A11; assay: Cell viability, alamarBlue, HEK293FT cells; assay type: cell-based; settings: HEK293FT FLAG-MAGE-A11 against FLAG-vector, 24 h; listed as SJ521054
Method: as §1

[3] = test system: PCF11 degradation by MAGE-A11 in HEK293FT cells; assay: PCF11 degradation by MAGE-A11, immunoblot in HEK293FT cells; assay type: cell-based
Method: HEK293FT, HeLa and DAOY cells were grown in DMEM (Gibco) supplemented with 10% (v/v) FBS (Hyclone), 2 mM L-glutamine, 100 units/ml penicillin, 100 units/ml streptomycin, and […] amphotericin B (Invitrogen). HEK293FT and DAOY cells were transfected with either HA-FLAG-vector, FLAG-MAGE-A11 wild-type or SBC mutants using Effectene (QIAGEN) according to the manufacturer’s protocol in 6 cm^2 plates. After 48 h, cells were selected with 1 µg/ml puromycin (Sigma) over 2 weeks.
For western blotting, samples in SDS sample buffer were resolved on SDS-PAGE gels and then transferred to nitrocellulose membranes prior to blocking in TBST with 5% (w/v) milk powder or 3% (w/v) bovine serum albumin and probing with primary and secondary antibodies (GE Healthcare). Primary antibodies were: anti-Myc (Sigma, #C3956), anti-FLAG (Sigma, #F3165), anti-HUWE1 (Novus Biologicals, #NB 100-652), anti-PCF11 (Bethyl Laboratories, #A303-706A), anti-GAPDH (Cell Signaling Technology, #2118), anti-TRIM28 (Abcam, #ab22553), anti-AMPKα1 (Cell Signaling Technology, #2795), and anti-MMS19 (Proteintech, #16015-1-AP) and Tb-anti-GST (Invitrogen, #PV3551). Secondary antibodies were: Donkey Anti-Rabbit IgG (GE Healthcare, NA934V) and Sheep Anti-Mouse IgG (GE Healthcare, NA931V). […]

Caco-2 cells = assay: High throughput Caco-2 permeability; assay type: in vitro ADME
Method: High throughput Caco-2 permeability was performed in the TranswellR 0.4 µm polycarbonate membrane 96-well system with modified methods. Caco-2 cells were maintained at 37 °C in a humidified incubator with an atmosphere of 5% CO2. The cells were cultured in 75 cm^2 flasks with Dulbecco’s Modified Eagle’s Medium (DMEM) containing 10% (v/v) FBS, 1% (v/v) non-essential amino acids (NEAA), 100 units/ml of penicillin, and 100 µg/ml of streptomycin. The Caco-2 cells were seeded onto inserts at a density of 2 × 10^4 cells/insert separately. The medium in the wells was exchanged each other day, and the trans epithelial electrical resistance (TEER) value was measured using an epithelial voltohm meter (Millipore, Billerica, Massachusetts). […] For transport experiments, each cultured monolayer on the 96-well plate was washed twice with a transport buffer (HBSS containing 25 mM HEPES, pH 7.4). The permeability assay was initiated by the addition of each compound solution (10 µmol/l) into inserts (apical side, A) or receivers (basolateral side, B). The Caco-2 cell monolayers were incubated for 2 h at 37 °C. Fractions were collected from receivers (if apical to basal permeability) or inserts (if basal to apical permeability), and concentrations were assessed by UPLC/MS (Waters; Milford, MA). All compounds were tested in triplicates. The A → B (or B → A) apparent permeability coefficients (Papp) of each compound were calculated using the equation, Papp = dQ/dt × 1/AC0, where dQ/dt equals the flux of a drug across the monolayer, A equals the total insert well surface area, and C0 is the initial concentration of substrate in the donor compartment. The efflux ratio was determined by dividing the Papp in the B-A direction by the Papp in the A-B direction.

Row | SMILES | cell viability ([1]; DAOY cells with MAGE-A11 against vector control, 0–40 μM, 24 h, listed as SJ521054) | cytotoxicity independent of MAGE-A11 ([1]; higher concentrations, both cell lines (DAOY and HEK293)) | cell viability [2] | PCF11 protein levels / PCF11 degradation ([3]; HEK293FT cells stably expressing FLAG-MAGE-A11, 24 h, listed as SJ521054) | PCF11 protein levels ([3]; HEK293FT vector control cells, 24 h) | cell permeability in words (Caco-2 cells)
1 | FC(F)(F)c1ccc2c(NCCCNCc3ccc4[nH]ccc4c3)ccnc2c1 [SJ000521054-02] | reduces viability of MAGE-A11 expressing DAOY cancer cells; also recorded: decreased the viability of MAGE-A11 expressing DAOY and HEK293FT cells to a much greater extent than vector control MAGE-A11-negative cells | shows cytotoxicity to both cell lines | reduces viability of; also recorded: decreased the viability of MAGE-A11 expressing DAOY and HEK293FT cells to a much greater extent than vector control MAGE-A11-negative cells | blocks PCF11 degradation by MAGE-A11; also recorded: stabilized PCF11 protein levels | had no effect | 
2 | c1ccc2c(NCCCNCc3ccc4[nH]ccc4c3)ccnc2c1 [SJ001008066-01] |  |  |  |  |  | cell permeable
